Measurements taken from patent US11926580B2, “Hydropersulfide precursors” (THE JOHNS HOPKINS UNIVERSITY, priority 2018, dated 2024).
“And” between values parts separate entries of the source, which are not always exact repeats. Equal values may be shown once.

Tests used:
[1] = UPLC-MS analysis of RSSH trapping with N-ethylmaleimide; type: physicochemical; conditions: for RSSH generation (RSS-NEM adduct formation): NEM trap
Method: FIGS. 2a and 2b provide graphs of (a) UPLC-MS chromatograms of RSSH generation from 4d (200 μM) in the presence of NEM (4 mM) incubated in pH 7.4 ammonium bicarbonate (100 mM) with DTPA (100 μM) at 37° C. A peak at 3.7 min corresponding to N-ethylmaleamic acid (NEMA), derived from NEM hydrolysis, was observed under these conditions (see SI); (b) MS spectrum (ESI+ mode) of the product eluting at 5.06 min corresponding to 5a with m/z 349.0885 (expected m/z 349.0886).
FIG. 5 provides a graph of UPLC-MS chromatograms of RSSH generation from compound 1 (1 mM) in the presence of NEM (5 mM) incubated in pH 7.4 ammonium bicarbonate buffer containing DTPA (100 μM) for 30 min at 37° C. The asterisk indicates the methyl ester analogue of dialkyl trisulfide 2, which was also formed due to the presence of minor amount of methyl ester analogue of 1. A peak at 3.7 min corresponding to N-ethylmaleamic acid (NEMA), derived from NEM hydrolysis, was observed under these conditions.
RSSH trapping in the presence of N-ethylmaleimide (NEM) was carried out with a Waters Acquity/Xevo-G2 UPLC-MS system equipped with an ACQUITY UPLC BEH C18 column (2.1 mm×50 mm, 1.7 μm). Typically, RSSH precursor (1 eq) was incubated with NEM (5 to 20 eq) in freshly prepared pH 7 4 ammonium bicarbonate buffer (100 mM) containing DTPA (100 μM) at 37° C. An aliquot of the reaction mixture (300 μL) was withdrawn at specified time points, quenched with 0.25% formic acid (300 μL), and filtered through a 0.22 μm filter. The samples were then loaded into vials in an autosampler maintained at 4° C. and analyzed using UPLC-MS as follows: Mobile phase: 0-1 min 90% water+0% ACN+10% formic acid (0.1%); 1-7.5 min gradient up to 10% water+80% ACN+10% formic acid (0.1%); 7.5-8.4 min 10% water+80% ACN+10% formic acid (0.1%); 8.4-8.5 min gradient up to 90% water+0% ACN+10% formic acid (0.1%), 8.5-10 min 90% water+0% ACN+10% formic acid (0.1%). Flow rate=0.3 mL min^−1. The mass signals for products of RSSH trapping with NEM were obtained via deconvolution using MassLynx 4.1 software.
To a solution of NEM (5 mM) in pH 7 4 ammonium bicarbonate (100 mM) with DTPA (100 μM) in a 20-mL scintillation vial, hydropersulfide precursor 1 (1 mM, total reaction volume 3 mL) was added. The resulting mixture was incubated at 37° C. for 30 min. An aliquot of 300 μL reaction mixture was withdrawn, quenched with 300 μL of formic acid (0.25%) and analyzed using UPLC-MS.

[2] = Kinetics of RSSH generation by 1H NMR with NEM trapping; type: physicochemical; conditions: 10% D2O, 37° C.; for half-life at 1 mM: phosphate buffer, NEM, pH 7.4 buffer, read-out: half-life of precursor; for t1//2 (mm) / Hydropersulfide Yield (%) (RSS-NEM adduct): precursor 1 mM, NEM 20 mM, pH 7.4 phosphate buffer; for Hydropersulfide Yield (%) (RSS-NEM adduct): based upon % precursor consumed
Method: FIGS. 3a and 3b provide graphs of (a) Stacked ^1H NMR spectra showing the decomposition of precursor 4d (1 mM) with NEM (20 mM) in 10% D2O, phosphate buffer (PB), pH 7.4 at 37° C. to produce RSS-NEM adduct 5a; Precursor 4d was introduced to a solution of NEM in PB at t=0 min and following equilibration and shimming, the first 1H NMR spectrum was obtained after 6 min.; and (b) The kinetics of decomposition of 4d (circles represent the —CH3 protons (Ha) of the precursor) and formation of 5a (squares represent the diasterotopic protons (Hb) of the succinimide ring of the two product diastereomers).
Next, ^1H NMR spectroscopy was used to monitor the kinetics of RSSH generation from 4d by trapping with NEM in 10% D2O, pH 7.4 buffer containing DMSO as an internal standard at 37° C. An increase in the peak intensity attributed to one of the diasterotopic protons of the succinimide ring of the two product diastereomers (Hb, δ2.99-2.91 ppm) was observed (FIG. 3a). The other diasterotopic proton (Hc, δ3.30-3.21 ppm) overlaps with N-ethylmaleamic acid (NEMA), a product derived from NEM hydrolysis. Similarly, the intensity of two methyl group protons of precursor 4d (δ1.44 and 1.41 ppm) decreased as four methyl group protons of the two diastereomers of 5a (Ha, δ1.40, 1.37 ppm and 1.40, 1.34 ppm) increased, supporting the clean conversion of 4d to 5a. The ^1H NMR peak assignments for 5a are consistent with the RSS-NEM adduct formed during S-methoxycarbonyl penicillamine disulfide (MCPD) decomposition (Scheme 1, eq. 3) in the presence of NEM.
All starting materials were of reagent grade and used without further purification. N-acetyl-D-penicillamine, N-ethylmaleimide, N-ethylmaleamic acid, and phenylcyanamide were purchased from Sigma-Aldrich and used without further purification. Thiourea and N-substituted thioureas were purchased from Alfa Aesar and Oakwood Chemicals. Deuterated solvents (Cambridge Isotope Laboratories) were used for NMR spectroscopic analyses. NMR spectra were obtained on a 400 MHz FT-NMR spectrometer. All chemical shifts are reported in parts per million (ppm) relative to residual CHCl3 (7.26 ppm for ^1H, 77.2 ppm for ^13C), residual H2O (4.79 ppm for ^1H), residual DMSO (2.50 ppm for ^1H, 39.5 for ^13C), or residual MeOH (3.31 ppm for ^1H, 49.2 ppm for ^13C). The kinetics of RSSH generation were measured using a Varian Inova 800 MHz spectrometer. UPLC-MS analysis was carried out with a Waters Acquity/Xevo-G2 UPLC-MS system equipped with an ACQUITY UPLC BEH C18 column (2.1 mm×50 mm, 1.7 μm). The mass signals for products of hydropersulfide trapping with NEM were obtained via deconvolution using MassLynx 4.1 software. The pH measurements were performed using a Fisher Scientific Accumet AB15 pH-meter. Analytical thin layer chromatography (TLC) was performed on Sigma-Aldrich silica gel on TLC A1 foils with fluorescent indicator F254 plates. Visualization was accomplished with UV light (254 nm) or staining with KMnO4. Flash column chromatography was performed using SiliaFlash P60 (230-400 mesh) silica gel. Melting points were recorded using MEL-TEMP® capillary melting point apparatus and are uncorrected.

[3] = as above; type: physicochemical; conditions: pH 7.4 buffer with 20% MeOD
cardiomyocyte H9c2 cells [4] = test: Cytotoxicity / cell viability assay with Cell Counting Kit-8; type: cell-based; conditions: up to 200 μM, 24 h, CCK-8
Method: (§1) FIGS. 6a and 6b provide graphs of (a) the cell viability of cardiomyocyte H9c2 cells following incubation of the RSSH precursor 4d (50 μM) and phenylcynamide (200 μM) for 24 h; and (b) the cytoprotective effects of the RSSH precursor 4d observed following pretreatment of H9c2 cells with either 4d (50 μM) or phenylcynamide (200 μM) for 2 h, followed by hydrogen peroxide (200 μM) treatment for 2 h. Quantification of cell viability was carried out using Cell Counting Kit-8 (CCK-8). Results are expressed as the mean±SEM (n=6).
The cytotoxicity and impact on cell viability of the hydropersulfide (RSSH) precursor 4d have been examined using the cardiomyocyte H9C2 cell line and Cell Counting Kit-8 (CCK-8). A cell viability assay reveled that 4d was not cytotoxic at 50 μM ([…]).

cardiomyocyte H9c2 cells [5] = test: Cytoprotection against hydrogen peroxide-induced cytotoxicity; type: cell-based; conditions: pretreatment 2 h (4d 50 μM; phenyl cyanamide 200 μM), then H2O2 200 μM 2 h, CCK-8
Method: as §1
Since hydropersulfides are reported to mitigate oxidative stress, the ability of RSSH precursor 4d to protect cardiomyocyte H9c2 cells from cytotoxicity induced by hydrogen peroxide (H2O2) was tested.

## CC(=O)NC(CSSC(=N)N)C(=O)O.Cl (centres unmarked) [Precursor 1, ((2-acetamido-2-carboxyethyl)disulfaneyl)(amino)methaniminium chloride]
other
  melting point: 70 to 72 °C
[1]; 1 mM with NEM 5 mM, pH 7.4 buffer, 37° C., 30 min
  disappearance of precursor: complete disappearance
[1]; pH 7.4 buffer, 37° C., UPLC-MS
  RSSH generation (RSS-NEM adduct formation): no evidence of persulfide-NEM adduct formation

## CC(=O)NC(C(=O)O)C(C)(C)SSC(=N)N.Cl (centres unmarked) [Precursor 4a, ((1-acetamido-1-carboxy-2-methylpropan-2-yl)disulfaneyl)(amino)methaniminium chloride]
other
  melting point: 154 to 156 °C
[1]; pH 7.4 buffer, 37° C., UPLC-MS
  RSSH generation (RSS-NEM adduct formation): formation of RSS-NEM 5a

## CNC(=N)SSC(C)(C)C(NC(C)=O)C(=O)O.Cl (centres unmarked) [Precursor 4b, ((1-acetamido-1-carboxy-2-methylpropan-2-yl)disulfaneyl)(methylamino) methaniminium chloride]
other
  melting point: 153 to 155 °C
[1]; pH 7.4 buffer, 37° C., UPLC-MS
  RSSH generation (RSS-NEM adduct formation): reduced compared with that from 4a

## COC(=O)C(NC(C)=O)C(C)(C)SSC(=N)N.Cl (centres unmarked) [Precursor 4c, ((3-acetamido-4-methoxy-2-methyl-4-oxobutan-2-yl)disulfaneyl)(amino)methaniminium chloride]
other
  melting point: 190 to 192 °C
[1]; decomposition in the presence of NEM, UPLC-MS
  RSS-NEM adduct 5b yield: less than 50%

## COc1ccc(NC(=N)SSC(C)(C)C(NC(C)=O)C(=O)O)cc1.Cl (centres unmarked) [Precursor 4e, ((1-acetamido-1-carboxy-2-methylpropan-2-yl)disulfaneyl)((4-methoxyphenyl)amino) methaniminium chloride]
other
  melting point: 142 to 144 °C
[2]
  half-life at 1 mM: 5 min
  t1//2 (mm): 5.0 ± 0.5 min
  Hydropersulfide Yield (%) (RSS-NEM adduct): 75% and 75 ± 2%

## CC(=O)NC(C(=O)O)C(C)(C)SSC(=N)Nc1ccccc1Cl.Cl (centres unmarked) [Precursor 4f, ((1-acetamido-1-carboxy-2-methylpropan-2-yl)disulfaneyl)((2-chlorophenyl)amino) methaniminium chloride]
other
  melting point: 152 to 154 °C
[2]
  half-life at 1 mM: 17.3 min
  t1//2 (mm): 173 ± 0.4 min
  Hydropersulfide Yield (%) (RSS-NEM adduct): 95% and 95 ± 2%

## CC(=O)NC(C(=O)O)C(C)(C)SSC(=N)Nc1ccc(Cl)cc1.Cl (centres unmarked) [Precursor 4g, ((1-acetamido-1-carboxy-2-methylpropan-2-yl)disulfaneyl)((4-chlorophenyl)amino) methaniminium chloride]
other
  melting point: 143 to 145 °C
[2]
  half-life at 1 mM: 9.3 min
  t1//2 (mm): 9.3 ± 0.6 min
  Hydropersulfide Yield (%) (RSS-NEM adduct): 91% and 91 ± 1%

## CC(=O)NC(C(=O)O)C(C)(C)SSC(=N)Nc1ccc(C(F)(F)F)cc1.Cl (centres unmarked) [Precursor 4h, ((1-acetamido-1-carboxy-2-methylpropan-2-yl)disulfaneyl)((4-(trifluoromethyl)phenyl)amino)methaniminium chloride]
[3]; NEM, 37° C.
  Hydropersulfide Yield (%) (RSS-NEM adduct): 95% and 95 ± 2^d %
  t1//2 (mm): 6.8 ± 0.2 min
[3]; pH 7.4, read-out: half-life of precursor
  half-life: 6.8 min
other
  melting point: 151 to 153 °C

## CC(C)(C)SSC(=N)Nc1ccccc1.Cl [Precursor 9, (t-butyldisulfaneyl)(phenylamino)methaniminium chloride]
[2]
  half-life at 1 mM: 17.3 min
  Hydropersulfide Yield (%) (RSS-NEM adduct): 97%

## N#CNc1ccccc1 [phenyl cyanamide, reference compound]
Cardiomyocyte H9c2 cells [4]
  tolerability (cell viability): well tolerated
Cardiomyocyte H9c2 cells [5]
  cytoprotection from H2O2-induced cytotoxicity: did not protect
